Measurements reported in patent publication US20220387602A1, “BIFUNCTIONAL DEGRADERS AND THEIR METHODS OF USE” (NOVARTIS AG, priority 2019, published 2022).
Like-named read-outs stand apart in the source and are kept apart here.

Target: CRBN (Homo sapiens, UniProt Q96SW2)
Assay: CRBN displacement assay Format 2a (fluorescence polarization, 1536-well, Envision reader)
Assay type: binding
Conditions: for CRBN Amax* (% at 50 μM) Format 2a: greatest effect as % displacement of the reference probe at the highest concentration tested (50 μM), given where AC50 >50 μM
Experimental: Compounds were tested in the following biochemical and cellular assays.
BodipyFL conjugated lenalidomide compound HH was used as a fluorescent probe. […] Protein and substrate were diluted in assay buffer.
The fluorescence of the Bodipy FL-based probe was excited at 480 nm and the emissions of the product were measured at 535 nm. The fluorescence in each well was excited by 30 flashes per measurement.
For the determination of AC50 values, assays were performed at room temperature in 1536-well plates with a total assay volume of 6.03 μL per well. The test compounds were dissolved and diluted in 100% DMSO. For the assays, 30 nL of DMSO or compound solution were added per well, followed by the addition of 3 μL protein solution (80 nM protein in 1× assay buffer).
The final assay concentration of the protein was nominally 40 nM. After 45 minutes of pre-incubation at room temperature, the competition for binding was started by the addition of 3 μL probe solution (10 nM probe dissolved in assay buffer). The final concentration of the probe in the assays was 5 nM. After the addition of the probe solution, the final DMSO concentration in the assay was 0.5% (v/v). The effect of the probe on the pre-established compound-protein complex equilibrium was determined after 45 minutes (t=45 min). The AC50 value was calculated from the plot of percentage of protein saturation versus the test compound concentration by a logistics fit according to: y=A^2+(A^1−A^2)/(1+(x/AC50)^p), where y is the %-saturation value at the test compound concentration, x. A^1 is the lowest saturation value, i.e., 0%, and A^2 the maximum saturation value, i.e. 100%. The exponent, p, is the Hill coefficient.

[1] = concentration at which 50% of reference probe Compound HH is displaced, 40 nM protein, 5 nM probe, read-out: CRBN AC50 [μM] Format 2a

Chain of CRBN (Q96SW2 whole entry): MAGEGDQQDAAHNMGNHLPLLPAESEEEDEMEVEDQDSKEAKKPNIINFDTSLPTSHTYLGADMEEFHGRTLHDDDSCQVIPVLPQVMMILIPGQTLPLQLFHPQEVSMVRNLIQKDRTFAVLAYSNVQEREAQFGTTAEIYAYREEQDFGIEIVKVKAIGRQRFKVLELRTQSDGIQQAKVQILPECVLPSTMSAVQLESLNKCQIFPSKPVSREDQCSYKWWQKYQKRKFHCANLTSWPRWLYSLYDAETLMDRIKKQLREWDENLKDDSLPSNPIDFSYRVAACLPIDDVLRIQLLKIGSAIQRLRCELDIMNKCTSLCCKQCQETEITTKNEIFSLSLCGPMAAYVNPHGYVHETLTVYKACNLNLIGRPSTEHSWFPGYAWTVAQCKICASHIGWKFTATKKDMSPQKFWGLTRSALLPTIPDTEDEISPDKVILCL

| Compound | AC50 [1] [µM] | AC50 [µM] | further results |
| --- | --- | --- | --- |
| O=C(O)COc1ccc(Cl)c(N2CCC(=O)NC2=O)c1 [ILB-17, 2-(4-Chloro-3-(2,4-dioxotetrahydropyrimidin-1(2H)-yl)phenoxy)acetic acid] | 3.41 |  |  |
| NCCC#Cc1ccc(N2CCC(=O)NC2=O)cc1 [ILB-44, 1-(4-(4-aminobut-1-yn-1-yl)phenyl)dihydropyrimidine-2,4(1H,3H)-dione] | 5.43 |  |  |
| CCOC(COc1ccc(N2CCC(=O)NC2=O)c(Cl)c1)OCC [ILB-61, 1-(2-chloro-4-(2,2-diethoxyethoxy)phenyl)dihydropyrimidine-2,4(1H,3H)-dione] | 3.44 |  |  |
| NCCN1CCC(Oc2ccc(N3CCC(=O)NC3=O)cc2)CC1 [ILB-68, 1-(4-((1-(2-aminoethyl)piperidin-4-yl)oxy)phenyl)dihydropyrimidine-2,4(1H,3H)-dione] | 4.7 |  |  |
| Cc1cc(O)ccc1N1CCC(=O)NC1=O [ILB-13, 1-(4-hydroxy-2-methylphenyl)dihydropyrimidine-2,4(1H,3H)-dione] |  | 2.42 |  |
| O=C(O)Cn1cc(N2CCC(=O)NC2=O)cn1 [ILB-65, 2-(4-(2,4-Dioxotetrahydropyrimidin-1(2H)-yl)-1H-pyrazol-1-yl)acetic acid] |  | 26.1 |  |
| O=C1CCN(Cc2sccc2Br)C(=O)N1 [ILB-83, 1-((3-bromothiophen-2-yl)methyl)dihydropyrimidine-2,4(1H,3H)-dione] |  | 45.6 |  |
| O=C1CCN(Cc2cc(Cl)ccn2)C(=O)N1 [ILB-91, 1-((4-chloropyridin-2-yl)methyl)dihydropyrimidine-2,4(1H,3H)-dione] |  | 5.22 |  |
| O=C1CCN(Cc2ncc(Br)cn2)C(=O)N1 [ILB-90, 1-((5-bromopyrimidin-2-yl)methyl)dihydropyrimidine-2,4(1H,3H)-dione] |  | > 50 | CRBN Amax* (% at 50 μM) Format 2a (45 min): 40% |
| 1-((4-bromo-1H-pyrazol-5-yl)methyl)dihydropyrimidine-2,4(1H,3H)-dione [ILB-88] | > 50 |  | CRBN Amax* (% at 50 μM) Format 2a: 37% |
| O=C1CCN(Cc2cc(Br)ccn2)C(=O)N1 [ILB-92, 1-((4-bromopyridin-2-yl)methyl)dihydropyrimidine-2,4(1H,3H)-dione] |  | 1.85 |  |
| O=C1CCN(c2ccc(C#CCCCI)cc2)C(=O)N1 [ILB-39, 1-(4-(5-iodopent-1-yn-1-yl)phenyl)dihydropyrimidine-2,4(1H,3H)-dione] | 3.15 |  |  |
| O=C1CCN(Cc2cccn(C3CCN(C(=O)OCc4ccccc4)CC3)c2=O)C(=O)N1 [ILB-94, Benzyl-4-(3-((2,4-dioxotetrahydropyrimidin-1(2H)-yl)methyl)-2-oxopyridin-1(2H)-yl)piperidine-1-carboxylate] |  | 4.95 |  |
| O=C1CCN(Cc2nc(C(=O)O)cs2)C(=O)N1 [ILB-87, 2-((2,4-dioxotetrahydropyrimidin-1(2H)-yl)methyl)thiazole-4-carboxylic acid] |  | 5.34 |  |
| Nc1ncc(Br)cc1CN1CCC(=O)NC1=O [ILB-93, 1-((2-amino-5-bromopyridin-3-yl)methyl)dihydropyrimidine-2,4(1H,3H)-dione] |  | 10.9 |  |
| CCOC(=O)c1cnc(C)c(N2CCC(=O)NC2=O)c1 [ILB-82, ethyl 5-(2,4-dioxotetrahydropyrimidin-1(2H)-yl)-6-methylnicotinate] | 29.8 |  |  |
| O=C1CCN(Cc2cc(C(F)(F)F)[nH]n2)C(=O)N1 [ILB-84, 1-((5-(trifluoromethyl)-1H-pyrazol-3-yl)methyl)dihydropyrimidine-2,4(1H,3H)-dione] |  | 33.3 |  |
| O=C(O)CCn1cc(N2CCC(=O)NC2=O)cn1 [ILB-66, 3-(4-(2,4-Dioxotetrahydropyrimidin-1(2H)-yl)-1H-pyrazol-1-yl)propanoic acid] |  | > 50 | CRBN Amax* (% at 50 μM) Format 2a (45 min): 46% |
| O=C1CCN(c2cc(C(=O)O)ccc2O)C(=O)N1 [ILB-22, 3-(2,4-Dioxotetrahydropyrimidin-1(2H)-yl)-4-hydroxybenzoic acid] | 0.69 |  |  |
| COc1ccc(C(=O)O)cc1CN1CCC(=O)NC1=O [ILB-9, 3-((2,4-Dioxotetrahydropyrimidin-1(2H)-yl)methyl)-4-methoxybenzoic acid] |  | > 50 | CRBN Amax* (% at 50 μM) Format 2a (45 min): 1% |
| Cn1cc(Br)c(CN2CCC(=O)NC2=O)n1 [ILB-85, 1-((4-bromo-1-methyl-1H-pyrazol-3-yl)methyl)dihydropyrimidine-2,4(1H,3H)-dione] |  | > 50 | CRBN Amax* (% at 50 μM) Format 2a (45 min): 47% |
| O=C1CCN(Cc2ccncc2Br)C(=O)N1 [ILB-89, 1-((3-bromopyridin-4-yl)methyl)dihydropyrimidine-2,4(1H,3H)-dione] |  | 16.7 |  |
| O=C1CCN(c2ccc(C#CCN3CCC(n4cc(Br)cn4)CC3)cc2)C(=O)N1 [ILB-49, 1-(4-(3-(4-(4-bromo-1H-pyrazol-1-yl)piperidin-1-yl)prop-1-yn-1-yl)phenyl)dihydropyrimidine-2,4(1H,3H)-dione] | 3.36 |  |  |
| C[Si](C)(C)CCOCN1C(=O)CCN(Cc2cccc(C=O)c2)C1=O [ILB-10, 3-((2,4-Dioxo-3-((2-(trimethylsilyl)ethoxy)methyl)tetrahydropyrimidin-1(2H)-yl)methyl)benzaldehyde] | > 50 |  | CRBN Amax* (% at 50 μM) Format 2a (45 min): 0% |
